The results in this text go back to ChEMBL document CHEMBL2412976, “Structure optimization of 2-benzamidobenzoic acids as PqsD inhibitors for Pseudomonas aeruginosa infections and elucidation of binding mode by SPR, STD NMR, and molecular docking” (J Med Chem, 2013).

Assay [1] is described as follows: Inhibition of Pseudomonas aeruginosa PqsD using ACoA/beta-ketodecanoic acid as substrate assessed as HHQ formation incubated for 10 mins prior to ACoA/beta-ketodecanoic acid addition measured for 40 mins.
Assay [2] concerns Pseudomonas aeruginosa. As to the kind of experiment: Inhibition of Pseudomonas aeruginosa PqsD assessed as HHQ formation at 50 uM incubated 30 mins prior to substrate addition.
A short description of assay [3]: Inhibition of Pseudomonas aeruginosa PqsD using ACoA/beta-ketodecanoic acid as substrate assessed as HHQ formation incubated for 30 mins prior to ACoA addition followed by 10 mins after treated with beta-ketodecanoic acid measured for 40 mins.
Assay [4] concerns Pseudomonas aeruginosa. Briefly: Binding affinity to Pseudomonas aeruginosa wild-type PqsD by NMR spectroscopy analysis.
Assay [5] relates to Pseudomonas aeruginosa. Briefly: Binding affinity to Pseudomonas aeruginosa wild-type PqsD expressed in Escherichia coli BL21 (lambdaDE3) cells by surface plasmon resonance analysis.
In assay [6] the test system is T1, 2-heptyl-4(1H)-quinolone synthase PqsD (Pseudomonas aeruginosa), A0A0C7ACN7 [S318F].
T1 sequence (whole entry): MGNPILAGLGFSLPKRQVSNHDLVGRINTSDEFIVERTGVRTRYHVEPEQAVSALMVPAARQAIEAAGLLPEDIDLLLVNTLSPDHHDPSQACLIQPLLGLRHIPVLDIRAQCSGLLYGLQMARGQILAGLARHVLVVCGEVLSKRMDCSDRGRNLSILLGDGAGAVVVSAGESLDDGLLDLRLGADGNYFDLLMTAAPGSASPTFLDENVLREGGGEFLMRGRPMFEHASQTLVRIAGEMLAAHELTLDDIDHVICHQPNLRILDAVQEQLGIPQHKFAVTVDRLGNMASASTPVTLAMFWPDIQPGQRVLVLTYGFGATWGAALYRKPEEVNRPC
Briefly: Binding affinity to Pseudomonas aeruginosa PqsD S317F mutant expressed in Escherichia coli BL21 (lambdaDE3) cells by surface plasmon resonance analysis.

Assay [7] relates to Pseudomonas aeruginosa. As to the kind of experiment: Binding affinity to Pseudomonas aeruginosa PqsD at 20 uM by surface plasmon resonance analysis in presence of ACoA.
The test system of assay [8] is Pseudomonas aeruginosa. As to the kind of experiment: Binding affinity to Pseudomonas aeruginosa PqsD at 20 uM by surface plasmon resonance analysis in absence of ACoA.
Assay [9] has as its system T2, 2-heptyl-4(1H)-quinolone synthase PqsD (Pseudomonas aeruginosa), A0A0C7ACN7 [C113A].
T2 sequence (whole entry): T1 sequence (whole entry) with C113A, F318S
Briefly: Binding affinity to Pseudomonas aeruginosa PqsD C112A mutant expressed in Escherichia coli BL21 (lambdaDE3) cells by surface plasmon resonance analysis.

Assay [10] deals with T3, 2-heptyl-4(1H)-quinolone synthase PqsD (Pseudomonas aeruginosa), A0A0C7ACN7 [H258F].
T3 sequence (whole entry): T1 sequence (whole entry) with H258F, F318S
As to the kind of experiment: Binding affinity to Pseudomonas aeruginosa PqsD H257F mutant expressed in Escherichia coli BL21 (lambdaDE3) cells by surface plasmon resonance analysis.

The test system of assay [11] is Pseudomonas aeruginosa. As to the kind of experiment: Binding affinity to Pseudomonas aeruginosa PqsD at 100 uM by surface plasmon resonance analysis in presence of ACoA.
Assay [12] has as its system Pseudomonas aeruginosa. As to the kind of experiment: Binding affinity to Pseudomonas aeruginosa PqsD at 20 uM incubated prior to ACoA addition by surface plasmon resonance analysis in presence of ACoA.
Assay [13] is described as follows: Binding affinity to Pseudomonas aeruginosa wild-type PqsD by isothermal titration calorimetry.

Numbering of substitutions follows the chain as printed. The source made the active and inactive calls. No cut-off for these calls is given here.

`CCN(CC)S(=O)(=O)c1cccc(C(=O)Nc2ccc(F)cc2C(=O)O)c1`: the IC50 in [1] was 11.4 µM.

Take `CCN(CC)S(=O)(=O)c1cccc(C(=O)Nc2ccccc2C(N)=O)c1`: the inhibition in the assay on Pseudomonas aeruginosa [2] was 21%.

Take `CCN(CC)C(=O)c1cccc(C(=O)Nc2ccccc2C(=O)O)c1`: in the assay on Pseudomonas aeruginosa [2], the inhibition was below 10%.

For the compound `CCN(CC)S(=O)(=O)c1cccc(C(=O)Nc2ccc(-c3ccc(C(N)=O)cc3)cc2C(=O)O)c1`, the IC50 in [1] was 1.9 µM.

As to `NS(=O)(=O)c1cccc(C(=O)Nc2ccccc2C(=O)O)c1`, the IC50 in [1] came to 43.6 µM.

With `CCN(CC)S(=O)(=O)c1cccc(C(=O)Nc2ccc(-c3cccc(C(=O)O)c3)cc2C(=O)O)c1`, the IC50 was 1.5 µM in assay [1] and 1.6 µM in assay [3].

In the case of `CCN(Cc1ccccc1)S(=O)(=O)c1cccc(C(=O)Nc2ccccc2C(=O)O)c1`, the IC50 turned out to be 16.5 µM in assay [1] and 12.9 µM in assay [3]. Moreover, in the assay on Pseudomonas aeruginosa [4], the result was Active.

As for `CCN(CC)S(=O)(=O)c1cccc(C(=O)Nc2cccc(OC)c2C(=O)O)c1`, the inhibition in the assay on Pseudomonas aeruginosa [2] was 44%.

Regarding `CCN(CC)S(=O)(=O)c1ccc(C(=O)Nc2ccccc2C(=O)O)cc1`, the inhibition in the assay with Pseudomonas aeruginosa [2] was 44%.

Regarding `CCCN(CCC)S(=O)(=O)c1cccc(C(=O)Nc2ccccc2C(=O)O)c1`, the IC50 in assay [1] came out at 5.4 µM.

Take `O=C(Nc1ccccc1C(=O)O)c1cccc(S(=O)(=O)N2CCCCC2)c1`: the IC50 in assay [1] was 14.4 µM.

For `CCc1ccc(C(=O)Nc2ccccc2C(=O)O)cc1S(=O)(=O)N(CC)CC`, the inhibition in the assay with Pseudomonas aeruginosa [2] came to 39%.

On to `CCN(CC)S(=O)(=O)c1cc(C(=O)Nc2ccccc2C(=O)O)ccc1C`, for which the IC50 in [1] is 27.3 µM.

On to `CCN(CC)S(=O)(=O)c1cccc(C(=O)Nc2ccc(C#N)cc2C(=O)O)c1`, for which the IC50 in assay [1] stood at 26.2 µM.

Consider `O=C(Nc1ccccc1C(=O)O)c1cccc(S(=O)(=O)N2CCCCCC2)c1`, for which the IC50 in assay [1] came out at 14.8 µM.

With `CCN(CC)C(=O)c1cccc(C(=O)Nc2ccc(Br)cc2C(=O)O)c1`, the IC50 in assay [1] was found to be 25.5 µM.

`CCN(CC)S(=O)(=O)c1cc(C(=O)Nc2ccc(Br)cc2C(=O)O)ccc1Br`: the IC50 in assay [1] was found to be 3.8 µM.

For `CCN(CC)S(=O)(=O)c1cccc(C(=O)Nc2ccc(-c3ccc(C(=O)O)cc3)cc2C(=O)O)c1`, the IC50 came out at 2.7 µM in [1] and 2 µM in assay [3].

As to `CCN(CC)S(=O)(=O)c1cccc(C(=O)Nc2cc(Cl)ccc2C(=O)O)c1`, the IC50 in assay [1] came to 9.4 µM.

As for `O=C(Nc1ccccc1C(=O)O)c1cccc(S(=O)(=O)N2CCOCC2)c1`, the inhibition in the assay with Pseudomonas aeruginosa [2] was 16%.

Turning to `CCN(CC)S(=O)(=O)c1cccc(C(=O)Nc2ccc(Br)cc2C(=O)O)c1`, the outcome (with Pseudomonas aeruginosa [5]; in assay [6]; in the assay with Pseudomonas aeruginosa [7]; in the assay with Pseudomonas aeruginosa [8]; in assay [9]; in [10]) was Active. For the same compound, the values for the IC50 in assay [1] and in assay [3] were 9.9 µM and 7 µM, respectively.

Regarding `CCN(CC)S(=O)(=O)c1cc(C(=O)Nc2ccccc2C(=O)O)ccc1Br`, the result (with Pseudomonas aeruginosa [5]; in [6]; in assay [9]; in assay [10]) was Active. Besides, in [1], the IC50 came to 6.9 µM.

For `CCN(CC)S(=O)(=O)c1cccc(C(=O)Nc2cc([N+](=O)[O-])ccc2C(=O)O)c1`, the IC50 in assay [1] came to 6.3 µM.

Consider `O=C(Nc1ccccc1C(=O)O)c1cccc(S(=O)(=O)N2CCCC2)c1`, for which the inhibition with Pseudomonas aeruginosa [2] came out at 47%.

`Cc1ccc(S(=O)(=O)c2cc(O)c3ccccc3c2O)cc1`: the values for the IC50 in assay [1] and in assay [3] were 0.15 µM and 1.1 µM, respectively. Besides, in the assay on Pseudomonas aeruginosa [11], the result was inactive.

On to `CCN(CC)S(=O)(=O)c1ccc(C(=O)Nc2ccc(Br)cc2C(=O)O)cc1`, for which, in [1], the IC50 stood at 13 µM.

In the case of `O=C(Nc1ccccc1C(=O)O)c1ccc(-c2ccccc2)c(Oc2ccccc2)c1`, the IC50 in [1] is 6.6 µM.

On to `CCN(CC)S(=O)(=O)c1cccc(C(=O)Nc2ccc(-c3cccc(C(N)=O)c3)cc2C(=O)O)c1`, for which the IC50 in assay [1] was 3.8 µM.

Turning to `CCN(CC)S(=O)(=O)c1cc(C(=O)Nc2ccc(F)cc2C(=O)O)ccc1Br`, in assay [1], the IC50 was determined as 6.6 µM.

Consider `CCN(CC)S(=O)(=O)c1cccc(C(=O)Nc2ccccc2C(=O)O)c1`, for which the inhibition in the assay on Pseudomonas aeruginosa [2] is 69%. Further, the results for the IC50 in [1] and in [3] were 19.8 µM and 19.4 µM, respectively. Besides, in the assay with Pseudomonas aeruginosa [4], the outcome was Active.

For the compound `CCN(CC)S(=O)(=O)c1cccc(C(=O)Nc2ccc([N+](=O)[O-])cc2C(=O)O)c1`, the 50% inhibitory concentration (IC50) in assay [1] was found to be 8.9 µM.

As for `CCN(CC)S(=O)(=O)c1cccc(C(=O)Nc2ccc(C(F)(F)F)cc2C(=O)O)c1`, the IC50 in assay [1] worked out at 12.4 µM.

As to `CCN(CC)S(=O)(=O)c1cccc(C(=O)Nc2cccc(O)c2C(=O)O)c1`, the IC50 in assay [1] worked out at 1.2 µM; in assay [3] it was 1.1 µM. Also, the result in the assay on Pseudomonas aeruginosa [4] was Active.

Consider `O=[N+]([O-])c1ccccc1C(O)c1ccccc1` (configuration not stated), for which the IC50 in [1] worked out at 3.2 µM.

Regarding `CCN(CC)S(=O)(=O)c1cccc(C(=O)Nc2cc(F)ccc2C(=O)O)c1`, the IC50 in assay [1] was found to be 8 µM.

`CCN(CC)S(=O)(=O)c1cccc(C(=O)Nc2cccc(C(=O)O)c2)c1`: in the assay with Pseudomonas aeruginosa [2], the inhibition was 13%.

`CN(C)S(=O)(=O)c1cccc(C(=O)Nc2ccccc2C(=O)O)c1`: the inhibition in the assay with Pseudomonas aeruginosa [2] came out at 35%.

Consider `CCN(CC)S(=O)(=O)c1cccc(C(=O)Nc2ccc(-c3ccccc3)cc2C(=O)O)c1`, for which the result (with Pseudomonas aeruginosa [5]; in assay [6]; in the assay on Pseudomonas aeruginosa [12]; in the assay with Pseudomonas aeruginosa [7]; with Pseudomonas aeruginosa [8]; in assay [9]) was Active. Moreover, the outcome in assay [10] was Active. Moreover, in assay [13], the affinity, expressed as Kd, was 5.2 µM. Further, the IC50 in [1] came to 3 µM; in assay [3], 4.2 µM.

`CCN(CC)S(=O)(=O)c1cccc(C(=O)Nc2ccc(C)cc2C(=O)O)c1`: in assay [1], the IC50 was found to be 18.4 µM.

As to `CCN(CC)S(=O)(=O)c1cccc(C(=O)Nc2cccc(F)c2C(=O)O)c1`, the concentration for half-maximal inhibition (IC50) in assay [1] was determined as 24.9 µM.

As for `CCN(CC)S(=O)(=O)c1cccc(C(=O)Nc2cccc(Cl)c2C(=O)O)c1`, the IC50 in [1] came to 39 µM.
